According to patent US20240287080A1 (IDEAYA Biosciences Inc., priority 2021, published 2024):

Biological target: T1, Pol theta (1-899) (Homo sapiens, UniProt O75417)
T1 construct: Pol theta (1-899) (5 nM) in assay buffer
Assay: Pol theta ATPase activity, NADH oxidation-coupled enzymatic assay (ATPase NADH coupling: Standard Screening: hPolQ)
Assay type: biochemical
Details: Pol theta (1-899) 5 nM
Protocol: The ability of the compounds of Formula (I) or Table 1 to inhibit ATPase activity of Pol theta (1-899) was determined using the assay described below. Pol Theta ATPase activity was determined by measuring the rate of ATP turn over in a NADH oxidation-coupled enzymatic assay. 10-point dilution series of compounds were used in a 384 well format for the inhibition assays. Pol theta (1-899) (5 nM) in assay buffer (20 mM Tris HCl (pH 7.80), 80 mM KCl, 10 mM MgCl2, 1 mM DTT, 0.01% BSA, 0.01% Tween, 5% glycerol) was transferred to the test wells (20 μL), except the low control wells (20 μL of assay buffer was added to the low control wells). The plate was then incubated at room temperature for 15 min. An equal volume (20 μL) of 100 μM ATP, 300 nM […] (single-stranded DNA (ssDNA) containing 50 thymine bases), 300 μM NADH, 6 mM PEP, 10 U/mL lactate dehydrogenase and 20 U/mL pyruvate kinase in assay buffer was added to all the test wells. The plate was then centrifuged at 1000 rpm for 1 min. The reaction was monitored for 60 min by measuring absorbance (λ=340 nm) in a Tecan Spark multimode plate reader every minute. The high control (DMSO with enzyme) with low absorbance intensity represents no inhibition of ATPase reaction while the low control (DMSO with buffer) with high absorbance intensity represents full inhibition of ATPase activity. Slope of the reaction progress curves were used to calculate the rate of ATP hydrolysis. The rates were used to determine the percent inhibition using a four-parameter inhibition model to generate IC50, Hill slope and max inhibition.

[1] = NADH oxidation-coupled ATPase assay, compounds of Table 3

T1 sequence (O75417 1-899): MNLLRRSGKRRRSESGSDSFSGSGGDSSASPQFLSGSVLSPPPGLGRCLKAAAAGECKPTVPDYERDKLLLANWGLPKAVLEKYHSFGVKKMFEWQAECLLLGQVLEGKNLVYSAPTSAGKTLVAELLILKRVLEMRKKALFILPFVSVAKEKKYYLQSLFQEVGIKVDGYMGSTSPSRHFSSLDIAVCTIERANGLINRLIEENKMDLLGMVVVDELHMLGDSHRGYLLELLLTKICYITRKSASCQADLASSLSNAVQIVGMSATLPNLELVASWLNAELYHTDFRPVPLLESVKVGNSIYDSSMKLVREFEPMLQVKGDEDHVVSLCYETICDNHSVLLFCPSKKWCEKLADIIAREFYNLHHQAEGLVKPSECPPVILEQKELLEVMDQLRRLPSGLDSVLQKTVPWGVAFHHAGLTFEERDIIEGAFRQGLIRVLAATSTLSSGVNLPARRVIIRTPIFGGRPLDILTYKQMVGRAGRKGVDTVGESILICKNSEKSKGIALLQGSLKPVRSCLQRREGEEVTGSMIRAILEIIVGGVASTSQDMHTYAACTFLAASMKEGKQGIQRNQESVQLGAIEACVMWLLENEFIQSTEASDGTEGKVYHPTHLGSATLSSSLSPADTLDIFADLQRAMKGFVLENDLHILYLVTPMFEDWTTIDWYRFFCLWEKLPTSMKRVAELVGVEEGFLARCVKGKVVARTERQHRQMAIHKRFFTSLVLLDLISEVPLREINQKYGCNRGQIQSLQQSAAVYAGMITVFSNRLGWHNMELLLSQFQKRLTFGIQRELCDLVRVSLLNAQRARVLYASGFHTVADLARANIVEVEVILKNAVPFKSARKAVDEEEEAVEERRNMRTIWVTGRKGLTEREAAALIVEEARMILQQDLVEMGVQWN

| IC50 [1] | Structure (SMILES) | further results |
| --- | --- | --- |
| – | COc1nnc(NC(=O)c2cnc(CO)cc2-c2cc(Cl)ncc2OC)s1 [Example 64, 2′-chloro-6-(hydroxymethyl)-5′-methoxy-N-(5-methoxy-1,3,4-thiadiazol-2-yl)-(4,4′-bipyridine)-3-carboxamide] | IC50 (Table 4, ATP, dT50 ssDNA): ≤ 0.2 µM |
| – | COc1nnc(NC(=O)c2cnc(C)cc2-c2cc(C3CC3)ncc2OC)s1 [Example 51, 2′-cyclopropyl-5′-methoxy-N-(5-methoxy-1,3,4-thiadiazol-2-yl)-6-methyl-(4,4′-bipyridine)-3-carboxamide] | IC50 (Table 4, ATP, dT50 ssDNA): ≤ 0.2 µM |
| ≤ 0.2 µM | COc1cnc(Cl)cc1-c1cc(C)ncc1C(=O)Nc1nnc(OC2([C@H]3CCOC3)CC2)s1 (single isomer, unassigned) [Example 297] | – |
| ≤ 0.2 µM | COc1cnc(Cl)c(F)c1-c1cc(C)ncc1C(=O)Nc1nnc(O[C@H]2CC[C@@H](CO)CC2)s1 [Example 245, 2′-chloro-3′-fluoro-N-(5-(((1s,4s)-4-(hydroxymethyl)cyclohexyl)oxy)-1,3,4-thiadiazol-2-yl)-5′-methoxy-6-methyl-[4,4′-bipyridine]-3-carboxamide] | – |
| ≤ 0.2 µM | COc1nnc(NC(=O)c2cnc(C)cc2-c2cccc3ccccc23)s1 [Example 398, N-(5-methoxy-1,3,4-thiadiazol-2-yl)-6-methyl-4-(naphthalen-1-yl)pyridine-3-carboxamide] | – |
| – | COc1nnc(NC(=O)c2c[nH]nc2-c2cc(Cl)ncc2OC)s1 [Example 109, 3-(2-chloro-5-methoxypyridin-4-yl)-N-(5-methoxy-1,3,4-thiadiazol-2-yl)-1H-pyrazole-4-carboxamide] | IC50 (Table 5, ATP, dT50 ssDNA): 1 to 10 µM |
| ≤ 0.2 µM | COc1cnc(C)c(F)c1-c1cc(C)ncc1C(=O)Nc1nnc(O[C@H]2CC[C@H](CO)CC2)s1 [Example 314, 3′-fluoro-N-(5-(((1r,4r)-4-(hydroxymethyl)cyclohexyl)oxy)-1,3,4-thiadiazol-2-yl)-5′-methoxy-2′,6-dimethyl-[4,4′-bipyridine]-3-carboxamide] | – |
| – | COc1cnc(Br)cc1-c1cc(C)ncc1C(=O)Nc1nnc(O[C@H]2CC[C@@](C)(O)CC2)s1 (single isomer, unassigned) [Example 222, 2′-bromo-N-(5-(((1s,4s)-4-hydroxy-4-methylcyclohexyl)oxy)-1,3,4-thiadiazol-2-yl)-5′-methoxy-6-methyl-(4,4′-bipyridine)-3-carboxamide] | IC50 (Table 5, ATP, dT50 ssDNA): ≤ 0.2 µM |
| 0.2 to 0.5 µM | COc1nnc(NC(=O)c2cc(OC(C)C)ncc2-c2cc(Cl)ncc2OC)s1 [Example 273, 2′-chloro-6-isopropoxy-5′-methoxy-N-(5-methoxy-1,3,4-thiadiazol-2-yl)-[3,4′-bipyridine]-4-carboxamide] | – |
| – | COc1cnc(Cl)cc1-c1cc(C)ncc1C(=O)Nc1nnc(O[C@H]2CC[C@@H](OC)C2)s1 (racemic) [Example 150, rac-2′-chloro-5′-methoxy-N-(5-(((1R,3S)-3-methoxycyclopentyl)oxy)-1,3,4-thiadiazol-2-yl)-6-methyl-(4,4′-bipyridine)-3-carboxamide] | IC50 (Table 5, ATP, dT50 ssDNA): ≤ 0.2 µM |
| 1 to 10 µM | COc1nnc(NC(=O)c2cnc(C)cc2-c2cnccc2C(F)(F)F)s1 [Example 481, N-(5-methoxy-1,3,4-thiadiazol-2-yl)-6′-methyl-4-(trifluoromethyl)-[3,4′-bipyridine]-3′-carboxamide] | – |
| – | COc1nnc(NC(=O)c2c[n+]([O-])c(C)cc2-c2cc(Cl)ncc2OC)s1 [Example 65, 2′-chloro-5′-methoxy-5-((5-methoxy-1,3,4-thiadiazol-2-yl)carbamoyl)-2-methyl-(4,4′-bipyridine) 1-oxide] | IC50 (Table 4, ATP, dT50 ssDNA): 0.5 to 1 µM |
| – | COc1cnc(Cl)cc1-c1cc(C)ncc1C(=O)Nc1nnc(OC2CCC3(CCCO3)CC2)s1 (single isomer, unassigned) [Example 174, N-(5-(((5r,8s)-1-oxaspiro(4.5)decan-8-yl)oxy)-1,3,4-thiadiazol-2-yl)-2′-chloro-5′-methoxy-6-methyl-(4,4′-bipyridine)-3-carboxamide] | IC50 (Table 5, ATP, dT50 ssDNA): ≤ 0.2 µM |
| – | COc1cnc(Cl)cc1-c1cc(OC2CC2)ncc1C(=O)Nc1nnc(O[C@@H]2CCOC2)s1 [Example 193, (R)-2′-chloro-6-cyclopropoxy-5′-methoxy-N-(5-((tetrahydrofuran-3-yl)oxy)-1,3,4-thiadiazol-2-yl)-(4,4′-bipyridine)-3-carboxamide] | IC50 (Table 5, ATP, dT50 ssDNA): 0.5 to 1 µM |
| – | COc1cnc(Cl)cc1-c1cc(C)ncc1C(=O)Nc1nnc(O[C@H]2CC[C@@H](O)CC2)s1 (single isomer, unassigned) [Example 26, 2′-chloro-N-(5-(((1s,4s)-4-hydroxycyclohexyl)oxy)-1,3,4-thiadiazol-2-yl)-5′-methoxy-6-methyl-[4,4′-bipyridine]-3-carboxamide] | IC50 (Table 4, ATP, dT50 ssDNA): ≤ 0.2 µM |
| 1 to 10 µM | COc1nnc(NC(=O)c2cnc(C)cc2-c2ccc(NS(C)(=O)=O)cc2)s1 [Example 387, 4-(4-methanesulfonamidophenyl)-N-(5-methoxy-1,3,4-thiadiazol-2-yl)-6-methylpyridine-3-carboxamide] | – |
| 1 to 10 µM | COc1nnc(NC(=O)c2cnc(C)cc2-c2ccnc(C)c2)s1 [Example 404, N-(5-methoxy-1,3,4-thiadiazol-2-yl)-2′,6-dimethyl-[4,4′-bipyridine]-3-carboxamide] | – |
| ≤ 0.2 µM | COc1cnc(Cl)cc1-c1cc(C)ncc1C(=O)Nc1nnc(OC2CCCN(C3CCOC3)C2)s1 (centres unmarked) [Example 247, 2′-chloro-5′-methoxy-6-methyl-N-(5-((1-(tetrahydrofuran-3-yl)piperidin-3-yl)oxy)-1,3,4-thiadiazol-2-yl)-[4,4′-bipyridine]-3-carboxamide] | – |
| 1 to 10 µM | COc1nnc(NC(=O)c2cnc(C)cc2-c2cc[nH]c(=O)c2)s1 [Example 364, N-(5-methoxy-1,3,4-thiadiazol-2-yl)-6-methyl-2′-oxo-1′,2′-dihydro-[4,4′-bipyridine]-3-carboxamide] | – |
| ≤ 0.2 µM | COc1cnc(C)c(F)c1-c1cc(C)ncc1C(=O)Nc1nnc(O[C@H]2C[C@H]3C[C@@H]2C[C@@H]3O)s1 (single isomer, unassigned) [Example 261] | – |
| – | COc1cnc(Cl)cc1-c1cc(C)ncc1C(=O)Nc1nnc(O[C@H]2CC[C@@H](OC)CC2)s1 (single isomer, unassigned) [Example 124, 2′-chloro-5′-methoxy-N-(5-(((1s,4s)-4-methoxycyclohexyl)oxy)-1,3,4-thiadiazol-2-yl)-6-methyl-(4,4′-bipyridine)-3-carboxamide] | IC50 (Table 5, ATP, dT50 ssDNA): ≤ 0.2 µM |
| – | COc1cnc(Cl)cc1-c1cc(C)ncc1C(=O)Nc1nnc(O[C@H]2CC[C@@H](O)C2)s1 (single isomer, unassigned) [Example 58] | IC50 (Table 4, ATP, dT50 ssDNA): ≤ 0.2 µM |
| ≤ 0.2 µM | COc1nnc(NC(=O)c2ccc(C)cc2-c2cc(Cl)ncc2OC)s1 [Example 279, 2-(2-chloro-5-methoxypyridin-4-yl)-N-(5-methoxy-1,3,4-thiadiazol-2-yl)-4-methylbenzamide] | – |
| – | COc1cnc(Cl)cc1-c1cc(C)ncc1C(=O)Nc1nnc(O[C@@H]2CC[C@H](O)C2)s1 (single isomer, unassigned) [Example 59] | IC50 (Table 4, ATP, dT50 ssDNA): ≤ 0.2 µM |
| 1 to 10 µM | CNS(=O)(=O)c1cccc(-c2cc(C)ncc2C(=O)Nc2nnc(OC)s2)c1 [Example 401, N-(5-methoxy-1,3,4-thiadiazol-2-yl)-6-methyl-4-[3-(methylsulfamoyl)phenyl]pyridine-3-carboxamide] | – |
| ≤ 0.2 µM | COc1cnc(Cl)cc1-c1cc(C)ncc1C(=O)Nc1nnc(O[C@H]2C[C@H]3C[C@@H]2C[C@@H]3O)s1 (single isomer, unassigned) [Example 269] | – |
